According to PMC4767605 (Cancer chemotherapy and pharmacology, 2016):
Read-outs that look alike come from different tables or passages of the source.

[1] = Cohort 3 (n=3): ASP9853 37.5 mg + docetaxel 60 mg/m^2
[2] = Cohort 4 (n=7): ASP9853 50 mg + docetaxel 60 mg/m^2
[3] = Total ASP9853 combination with docetaxel (n=20)
[4] = lead-in phase, ASP9853 single agent
[5] = patients receiving ASP9853 in combination with docetaxel

In the case of `O.O.O=C(/C=C/c1ccc(Cl)cc1)N[C@@H](Cc1ccccn1)C(=O)NCC(=O)N1CCC(Oc2cc(C(F)(F)F)ncn2)CC1` [ASP9853, (2E)-3-(4-chlorophenyl)-N-[(1S)-2-oxo-2-{[2-oxo-2-(4-{[6-(trifluoromethyl)-4-pyrimidinyl]oxy}-1-piperidinyl)ethyl]amino}-1-(2-pyridinylmethyl)ethyl]acrylamide dehydrate], the “AE potentially related to ASP9853: Decreased appetite; Grade All” value [1] is reported as 1 (33) n (%), the “AE potentially related to ASP9853: Diarrhea; Grade 3/4 (only Grade 3)” value [1] is reported as 0 n (%) and the “AE potentially related to ASP9853: Diarrhea; Grade All” value [1] is reported as 1 (33) n (%). The “AE potentially related to ASP9853: Dizziness; Grade 3/4” value [1] was 0 n (%), the “AE potentially related to ASP9853: Dizziness; Grade All” value [1] was 1 (33) n (%) and the “AE potentially related to ASP9853: Fatigue; Grade 3/4 (only Grade 3)” value [1] was 0 n (%). The “AE potentially related to ASP9853: Fatigue; Grade All” value [1] was 2 (67) n (%), the “AE potentially related to ASP9853: Febrile neutropenia; Grade 3/4” value [1] was 0 n (%) and the “AE potentially related to ASP9853: Febrile neutropenia; Grade All” value [1] was 0 n (%). The “AE potentially related to ASP9853: Nausea; Grade 3/4” value [1] was 0 n (%), the “AE potentially related to ASP9853: Nausea; Grade All” value [1] was 1 (33) n (%) and the “AE potentially related to ASP9853: Neutropenia; Grade 3/4” value [1] was 1 (33) n (%). For the same compound, the “AE potentially related to ASP9853: Neutropenia; Grade All” value [1] was 1 (33) n (%), the “AE potentially related to ASP9853: Neutrophil count decreased; Grade 3/4” value [1] was 1 (33) n (%) and the “AE potentially related to ASP9853: Neutrophil count decreased; Grade All” value [1] was 1 (33) n (%). For the same compound, the “AE potentially related to ASP9853: Overall; Grade 3/4” value [1] was 2 (67) n (%), the “AE potentially related to ASP9853: Overall; Grade All” value [1] was 3 (100) n (%) and the “AE potentially related to ASP9853: Vomiting; Grade 3/4” value [1] was 0 n (%). The “AE potentially related to ASP9853: Vomiting; Grade All” value [1] was 0 n (%), the “AE potentially related to ASP9853: White blood cell count decreased; Grade All” value [1] was 2 (67) n (%) and the DLTs (Cohort 3: ASP9853 37.5 mg + docetaxel 60 mg/m^2, three patients) was “no DLTs were observed”. For the same compound, the “SAE considered related to ASP9853: leukopenia” value (Cohort 4) was 1 n, the “SAE considered related to ASP9853: neutropenia” value (Cohort 4) was 1 n and the “AE potentially related to ASP9853: Anemia; Grade 3/4” value [2] was 0 n (%). The “AE potentially related to ASP9853: Anemia; Grade All” value [2] was 1 (14) n (%), the “AE potentially related to ASP9853: Asthenia; Grade 3/4” value [2] was 0 n (%) and the “AE potentially related to ASP9853: Asthenia; Grade All” value [2] was 0 n (%). The “AE potentially related to ASP9853: Constipation; Grade 3/4” value [2] was 0 n (%), the “AE potentially related to ASP9853: Constipation; Grade All” value [2] was 1 (14) n (%) and the “AE potentially related to ASP9853: Decreased appetite; Grade 3/4” value [2] was 0 n (%). For the same compound, the “AE potentially related to ASP9853: Decreased appetite; Grade All” value [2] was 0 n (%), the “AE potentially related to ASP9853: Diarrhea; Grade 3/4 (only Grade 3)” value [2] was 0 n (%) and the “AE potentially related to ASP9853: Diarrhea; Grade All” value [2] was 0 n (%). For the same compound, the “AE potentially related to ASP9853: Dizziness; Grade 3/4” value [2] was 0 n (%), the “AE potentially related to ASP9853: Dizziness; Grade All” value [2] was 2 (29) n (%) and the “AE potentially related to ASP9853: Fatigue; Grade 3/4 (only Grade 3)” value [2] was 1 (14) n (%). The “AE potentially related to ASP9853: Fatigue; Grade All” value [2] was 2 (29) n (%), the “AE potentially related to ASP9853: Febrile neutropenia; Grade 3/4” value [2] was 0 n (%) and the “AE potentially related to ASP9853: Febrile neutropenia; Grade All” value [2] was 0 n (%). For the same compound, the “AE potentially related to ASP9853: Nausea; Grade 3/4” value [2] was 0 n (%), the “AE potentially related to ASP9853: Nausea; Grade All” value [2] was 1 (14) n (%) and the “AE potentially related to ASP9853: Neutropenia; Grade 3/4” value [2] was 2 (29) n (%). For the same compound, the “AE potentially related to ASP9853: Neutropenia; Grade All” value [2] was 2 (29) n (%), the “AE potentially related to ASP9853: Neutrophil count decreased; Grade 3/4” value [2] was 1 (14) n (%) and the “AE potentially related to ASP9853: Neutrophil count decreased; Grade All” value [2] was 1 (14) n (%). For the same compound, the “AE potentially related to ASP9853: Overall; Grade 3/4” value [2] was 4 (57) n (%), the “AE potentially related to ASP9853: Overall; Grade All” value [2] was 7 (100) n (%) and the “AE potentially related to ASP9853: Vomiting; Grade 3/4” value [2] was 0 n (%). The “AE potentially related to ASP9853: Vomiting; Grade All” value [2] was 1 (14) n (%), the “AE potentially related to ASP9853: White blood cell count decreased; Grade All” value [2] was 2 (29) n (%) and the “AE potentially related to ASP9853: Anemia; Grade 3/4” value [3] was 0 n (%). The “AE potentially related to ASP9853: Anemia; Grade All” value [3] was 3 (15) n (%), the “AE potentially related to ASP9853: Asthenia; Grade 3/4” value [3] was 0 n (%) and the “AE potentially related to ASP9853: Asthenia; Grade All” value [3] was 2 (10) n (%). The “AE potentially related to ASP9853: Constipation; Grade 3/4” value [3] was 0 n (%), the “AE potentially related to ASP9853: Constipation; Grade All” value [3] was 3 (15) n (%) and the “AE potentially related to ASP9853: Decreased appetite; Grade 3/4” value [3] was 0 n (%). The “AE potentially related to ASP9853: Decreased appetite; Grade All” value [3] was 2 (10) n (%), the “AE potentially related to ASP9853: Diarrhea; Grade 3/4 (only Grade 3)” value [3] was 1 (5) n (%) and the “AE potentially related to ASP9853: Diarrhea; Grade All” value [3] was 4 (20) n (%). For the same compound, the “AE potentially related to ASP9853: Dizziness; Grade 3/4” value [3] was 0 n (%), the “AE potentially related to ASP9853: Dizziness; Grade All” value [3] was 3 (15) n (%) and the “AE potentially related to ASP9853: Fatigue; Grade 3/4 (only Grade 3)” value [3] was 2 (10) n (%). For the same compound, the “AE potentially related to ASP9853: Fatigue; Grade All” value [3] was 9 (45) n (%), the “AE potentially related to ASP9853: Febrile neutropenia; Grade 3/4” value [3] was 2 (10) n (%) and the “AE potentially related to ASP9853: Febrile neutropenia; Grade All” value [3] was 2 (10) n (%). For the same compound, the “AE potentially related to ASP9853: Nausea; Grade 3/4” value [3] was 0 n (%), the “AE potentially related to ASP9853: Nausea; Grade All” value [3] was 4 (20) n (%) and the “AE potentially related to ASP9853: Neutropenia; Grade 3/4” value [3] was 4 (20) n (%). For the same compound, the “AE potentially related to ASP9853: Neutropenia; Grade All” value [3] was 4 (20) n (%), the “AE potentially related to ASP9853: Neutrophil count decreased; Grade 3/4” value [3] was 2 (10) n (%) and the “AE potentially related to ASP9853: Neutrophil count decreased; Grade All” value [3] was 2 (10) n (%). The “AE potentially related to ASP9853: Overall; Grade 3/4” value [3] was 11 (55) n (%), the “AE potentially related to ASP9853: Overall; Grade All” value [3] was 18 (90) n (%) and the “AE potentially related to ASP9853: Vomiting; Grade 3/4” value [3] was 0 n (%). For the same compound, the “AE potentially related to ASP9853: Vomiting; Grade All” value [3] was 4 (20) n (%), the “AE potentially related to ASP9853: White blood cell count decreased; Grade All” value [3] was 5 (25) n (%) and the “Patients with AEs considered to be potential DLTs” value (all cohorts, ASP9853 + docetaxel) was “Five”. The “Patients who met the protocol-defined DLT criteria” value (in Cohorts 1 and 2) was “three”, the “Patients with post-baseline maximum Grade 1 neutropenia” value (laboratory evaluation) was “three” and the “Patients with post-baseline maximum Grade 4 neutropenia” value (laboratory evaluation) was “eight”. For the same compound, the “AE possibly related to ASP9853: QT prolonged electrocardiogram” value [4] was 1 n, the “AE possibly related to ASP9853: arthralgia” value [4] was 1 n and the “AE possibly related to ASP9853: asthenia” value [4] was 1 n. The “AE possibly related to ASP9853: gastrooesophageal reflux disease” value [4] was 1 n, the “AE possibly related to ASP9853: leukopenia” value [4] was 1 n and the “AE possibly related to ASP9853: nausea” value [4] was 1 n. For the same compound, the “AE possibly related to ASP9853: pollakiuria” value [4] was 1 n, the “AE possibly related to ASP9853: vomiting” value [4] was 1 n and the “AE regardless of relationship to study drug: alopecia” value [5] was 30.0%. For the same compound, the “AE regardless of relationship to study drug: decreased appetite” value [5] was 30.0%, the “AE regardless of relationship to study drug: decreased white blood cells” value [5] was 35.0% and the “AE regardless of relationship to study drug: fatigue” value [5] was 45.0%. The “AE regardless of relationship to study drug: nausea” value [5] was 35.0% and the “AE regardless of relationship to study drug: neutropenia” value [5] was 50.0%.
